The results in this text go back to ChEMBL document CHEMBL1201862, “PubChem BioAssay data set” (2004).

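Method: 48-hour compound exposure of cells in 96-well plates, five concentrations, linear interpolation of endpoints. At the GI50, growth is halved.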 Active and inactive are the calls of the source. No stated cut-off is given here; in the data, active = GI50 up to about 1.1 µM and inactive = higher.

Common to all, as to test: growth of human tumour cells (NCI), 48 h
The test system of assay [1] is SK-OV-3.
Assay [2] relates to SR.
For assay [3], the system named is SF-539.
Assay [4] relates to MCF7.
Assay [5] concerns DU-145.
The subject of assay [6] is A549.
The test system of assay [7] is MDA-N.
Assay [8] deals with PC-3.
Assay [9] has as its system NCI-H522.
In assay [10] the test system is NCI-H23.
The subject of assay [11] is HL-60.
In assay [12] the test system is ACHN.
The test system of assay [13] is IGROV-1.
In assay [14] the test system is NCI-H226.
Assay [15] has as its system U-251.
For assay [16], the system named is MDA-MB-435.
For assay [17], the system named is CAKI-1.
The test system of assay [18] is T47D.
Assay [19] concerns SK-MEL-28.

As to `O=S1(=O)c2ccccc2C(Nc2ccccc2)N1c1ccccc1` (centres undefined), the GI50 was > 100 µM (inactive) in assay [1]; 83.8 µM (inactive) in assay [2]; > 100 µM (inactive) in assay [3]; > 100 µM (inactive) in assay [4]; > 100 µM (inactive) in [5]; 56.8 µM (inactive) in assay [6]. The GI50 was > 100 µM (inactive) in [7]; > 100 µM (inactive) in assay [8]; 24.7 µM (inactive) in assay [9]; > 100 µM (inactive) in assay [10]; 85.7 µM (inactive) in assay [11]; > 100 µM (inactive) in [12]. Also, the GI50 was 36.9 µM (inactive) in assay [13]; > 100 µM (inactive) in assay [14]; 61 µM (inactive) in [15]; 45.1 µM (inactive) in assay [16]; > 100 µM (inactive) in [17]; 24.5 µM (inactive) in [18]. Besides, the GI50 in assay [19] was > 100 µM (inactive).
Take `CC(=N\N=C\c1ccccn1)/C(C)=N/N=C(C)/C(C)=N/N=C(C)/C(C)=N/N=C/c1ccccn1`: the GI50 in assay [1], in assay [2], in assay [3], in assay [4], in [5] and in [6] was > 100 µM (inactive) throughout. Further, the GI50 in assay [7], in assay [8], in assay [9], in assay [10], in [11] and in [12] was > 100 µM (inactive) each time. Further, the GI50 in assay [13], in [14], in [15], in assay [16], in [17] and in assay [18] was > 100 µM (inactive) each time. In addition, the GI50 in [19] was > 100 µM (inactive).
For the compound `C=C1CC(OC(C)=O)/C=C(/C)CCC(C(C)(C)O)CC1O` (centres undefined), the GI50 in assay [1], in assay [2], in assay [3], in assay [4], in assay [5] and in [6] was > 100 µM (inactive) in each case. The GI50 in [7], in assay [8], in assay [9], in [10], in assay [11] and in assay [12] was > 100 µM (inactive) each time. In addition, the GI50 in assay [13], in assay [14], in [15], in [16], in [17] and in assay [18] was > 100 µM (inactive) in each case. The GI50 in assay [19] is > 100 µM (inactive).
Turning to `CC1(C)C(=O)/C(=C/c2ccccc2)C(C)(C)C1(C)C`, the GI50 in assay [1] is > 55.5 µM (inactive); in [2], 37 µM (inactive); in assay [3], > 100 µM (inactive); in assay [4], 35.2 µM (inactive); in assay [5], 40.7 µM (inactive); in [6], 57.5 µM (inactive). Moreover, the GI50 in assay [7] is 39.1 µM (inactive); in [8] it was 53.7 µM (inactive); in assay [9] it was 63.2 µM (inactive); in assay [10] it was 70.6 µM (inactive); in [11], 18.9 µM (inactive); in assay [12], 53.3 µM (inactive). The GI50 in [13] was 60.1 µM (inactive); in assay [14], > 100 µM (inactive); in assay [15], 55.5 µM (inactive); in assay [16], 29.4 µM (inactive); in assay [17] it was 49.1 µM (inactive); in [18], > 65.3 µM (inactive). For the same compound, the GI50 in assay [19] was > 100 µM (inactive).
For `COn1cc(C=O)c2ccccc21`, the GI50 was 67 µM (inactive) in assay [1]; 26.4 µM (inactive) in assay [2]; > 45.6 µM (inactive) in assay [3]; 45.2 µM (inactive) in assay [4]; > 82 µM (inactive) in assay [5]; > 67 µM (inactive) in [6]. In addition, the GI50 in assay [7] was 23.6 µM (inactive); in assay [8], > 74.1 µM (inactive); in [9], 38.6 µM (inactive); in [10], > 100 µM (inactive); in assay [11], 0.551 µM (active); in assay [12], 32.7 µM (inactive). In addition, the GI50 is > 62.8 µM (inactive) in assay [13]; > 20.2 µM (inactive) in assay [14]; 55.6 µM (inactive) in assay [15]; 10.8 µM (inactive) in assay [16]; 28.7 µM (inactive) in assay [17]; 65.8 µM (inactive) in assay [18]. Besides, in [19], the GI50 is 33.6 µM (inactive).
Take `CC1(C)CC2=C(Sc3ccccc3N2)C(=O)C1C(=O)C(=O)Nc1cc(Cl)ccc1Cl` (centres undefined): the GI50 in assay [1], in assay [2], in [3], in assay [4], in assay [5] and in assay [6] was > 100 µM (inactive) throughout. In addition, the GI50 is > 100 µM (inactive) in assay [7]; 84.5 µM (inactive) in [8]; > 100 µM (inactive) in assay [9]; > 100 µM (inactive) in assay [10]; > 100 µM (inactive) in [11]; > 100 µM (inactive) in assay [12]. Further, the GI50 in assay [13] is > 100 µM (inactive); in [14] it was > 100 µM (inactive); in [15], > 100 µM (inactive); in assay [16], > 100 µM (inactive); in [17] it was > 100 µM (inactive); in [18], 82.8 µM (inactive). Also, in assay [19], the GI50 was > 100 µM (inactive).
As for `O=C(NCCCCCN1CCC2(CCCCC2)CC1)C(C1CCCCC1)C1CCCCC1`, the GI50 was 5.15 µM (inactive) in assay [1]; 1.57 µM (inactive) in assay [2]; 1.91 µM (inactive) in [3]; 2.13 µM (inactive) in assay [4]; 4.6 µM (inactive) in [5]; 5.94 µM (inactive) in [6]. Further, the GI50 in assay [7] was 1.84 µM (inactive); in [8] it was 2.77 µM (inactive); in assay [9], 4.17 µM (inactive); in assay [10], 3.1 µM (inactive); in [11], 1.56 µM (inactive); in [12], 3.67 µM (inactive). The GI50 in assay [13] was 4.24 µM (inactive); in assay [14], 3.67 µM (inactive); in assay [15], 4.34 µM (inactive); in [16], 1.85 µM (inactive); in assay [17] it was 4.1 µM (inactive); in assay [18] it was 2.51 µM (inactive). Besides, in assay [19], the GI50 is 1.83 µM (inactive).
On to `OCC1OC(n2cnc3c(/C=C(/O)c4ccccc4)ncnc32)C(O)C1O` (centres undefined), for which the GI50 in [1] is 0.428 µM (active); in [2], 1.35 µM (inactive); in [3], 4.93 µM (inactive); in assay [4] it was 3.8 µM (inactive); in assay [5] it was 1.61 µM (inactive); in assay [6], 1.29 µM (inactive). Also, the GI50 was 4.89 µM (inactive) in [7]; 4.04 µM (inactive) in assay [8]; 2.16 µM (inactive) in [9]; 2.82 µM (inactive) in [10]; 0.165 µM (active) in assay [11]; 0.923 µM (active) in assay [12]. Also, the GI50 in [13] was 0.927 µM (active); in assay [14] it was 5.38 µM (inactive); in assay [15], 10.9 µM (inactive); in [16], 2.25 µM (inactive); in assay [17], 3.11 µM (inactive); in assay [18] it was 3.03 µM (inactive). Moreover, the GI50 in assay [19] is 41.8 µM (inactive).
For `COc1ccc(C2OC(=O)c3ccc4ccccc4c32)c(C)c1` (centres undefined), the GI50 is 7.82 µM (inactive) in [1]; 3.86 µM (inactive) in assay [2]; 12.2 µM (inactive) in [3]; 5.65 µM (inactive) in [4]; 22.2 µM (inactive) in assay [5]; 6.31 µM (inactive) in assay [6]. In addition, the GI50 in assay [7] was 2 µM (inactive); in assay [8], 9.08 µM (inactive); in assay [9], 4.42 µM (inactive); in assay [10] it was 9.53 µM (inactive); in assay [11], 3.69 µM (inactive); in assay [12] it was 20.6 µM (inactive). For the same compound, the GI50 in [13] is 5.51 µM (inactive); in assay [14], 13.9 µM (inactive); in assay [15], 4.86 µM (inactive); in assay [16] it was 2.36 µM (inactive); in assay [17], 13.3 µM (inactive); in assay [18] it was 7.6 µM (inactive). In addition, the GI50 in assay [19] is 11.9 µM (inactive).
`Cn1c2c(c3ccccc31)CC1c3c(c4ccccc4n3C)CC21` (centres undefined): the GI50 in assay [1], in assay [2], in assay [3], in [4], in [5] and in assay [6] was > 100 µM (inactive) in each case. Also, the GI50 in [7], in assay [8], in assay [9], in assay [10], in [11] and in assay [12] was > 100 µM (inactive) each time. In addition, the GI50 in [13], in assay [14], in assay [15], in assay [16], in assay [17] and in assay [18] was > 100 µM (inactive) each time. For the same compound, in assay [19], the GI50 was > 100 µM (inactive).
On to `Cn1c(=S)sc2nc3ccccc3n2c1=S`, for which the GI50 in assay [1] is 10.4 µM (inactive); in assay [2], 2.37 µM (inactive); in [3], 12.8 µM (inactive); in assay [4], 2.26 µM (inactive); in assay [5], 5.35 µM (inactive); in assay [6], 24.7 µM (inactive). The GI50 is 12.6 µM (inactive) in [7]; 19.6 µM (inactive) in assay [8]; 4.21 µM (inactive) in [9]; 12.4 µM (inactive) in [10]; 2.49 µM (inactive) in [11]; 11.3 µM (inactive) in assay [12]. The GI50 in assay [13] was 12.8 µM (inactive); in assay [14], 21.4 µM (inactive); in assay [15], 11.5 µM (inactive); in assay [16] it was 7.45 µM (inactive); in assay [17], 14.6 µM (inactive); in assay [18], 9.84 µM (inactive). The GI50 in assay [19] was 12.4 µM (inactive).
